Key:
AZD1775 = compound: C=CCn1c(=O)c2cnc(Nc3ccc(N4CCN(C)CC4)cc3)nc2n1-c1cccc(C(C)(C)O)n1 [AZD1775]; conditions: max 3 µM
Summary of the method: (§1)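 After 24 hours at 37°C and 5% CO2 in 1536-well plates holding 7.5 μl of DMEM/F12 or RPMI with 10% FBS, cancer cell lines were dosed for 72 hours, with final DMSO typically 0.2%. Viability came from CellTiter-Glo 2.0 luminescence, scaled between the means of blank wells and DMSO wells. A non-linear mixed effects model fitted a two-parameter logistic curve to each dose response to give the single-agent IC50.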

SRA737 = compound: N#Cc1cnc(Nc2cc(NC[C@H]3CNCCO3)c(C(F)(F)F)cn2)cn1 [SRA737]; conditions: max 10 µM
Summary of the method: as §1

Lapatinib = compound: CS(=O)(=O)CCNCc1ccc(-c2ccc3ncnc(Nc4ccc(OCc5cccc(F)c5)c(Cl)c4)c3c2)o1 [Lapatinib]; conditions: max 10 µM
Summary of the method: as §1

AZD4320 = compound: CN(CC[C@H](CSC1=CC=CC=C1)NC2=C(C=C(C=C2)S(=O)(=O)NC(=O)C3=CC=C(C=C3)N4CCC(CC4)[C@H](C5=CC=CC=C5C6=CC=C(C=C6)Cl)O)S(=O)(=O)C(F)(F)F)CCO [AZD4320]; conditions: max 1 µM
Summary of the method: as §1

SN-38 = compound: CCc1c2c(nc3ccc(O)cc13)-c1cc3c(c(=O)n1C2)COC(=O)[C@]3(O)CC [SN-38]; conditions: max 0.3 µM
Summary of the method: as §1

Carboplatin = compound: C1CC(C1)(C(=O)[O-])C(=O)[O-].N.N.[Pt+2] [Carboplatin]; conditions: max 10 µM
Summary of the method: as §1

Gefitinib = compound: COc1cc2ncnc(Nc3ccc(F)c(Cl)c3)c2cc1OCCCN1CCOCC1 [Gefitinib]; conditions: max 10 µM
Summary of the method: as §1

Palbociclib = compound: CC(=O)c1c(C)c2cnc(Nc3ccc(N4CCNCC4)cn3)nc2n(C2CCCC2)c1=O [Palbociclib]; conditions: max 10 µM
Summary of the method: as §1

Dasatinib = compound: CC1=C(C(=CC=C1)Cl)NC(=O)C2=CN=C(S2)NC3=CC(=NC(=N3)C)N4CCN(CC4)CCO [Dasatinib]; conditions: max 2 µM
Summary of the method: as §1

Trametinib = compound: CC(=O)Nc1cccc(-n2c(=O)n(C3CC3)c(=O)c3c(Nc4ccc(I)cc4F)n(C)c(=O)c(C)c32)c1 [Trametinib]; conditions: max 1 µM
Summary of the method: as §1

AZD5363 = compound: C1CN(CCC1(C(=O)N[C@@H](CCO)C2=CC=C(C=C2)Cl)N)C3=NC=NC4=C3C=CN4 [AZD5363]; conditions: max 10 µM
Summary of the method: as §1

AZD5153 = compound: COc1nnc2ccc(N3CCC(c4ccc(OCCN5CCN(C)C(=O)[C@H]5C)cc4)CC3)nn12 [AZD5153]; conditions: max 1 µM
Summary of the method: as §1

MK-2206 = compound: NC1(c2ccc(-c3nc4ccn5c(=O)[nH]nc5c4cc3-c3ccccc3)cc2)CCC1 [MK-2206]; conditions: max 10 µM
Summary of the method: as §1

AZD1390 = compound: CC(C)n1c(=O)n(C)c2cnc3cc(F)c(-c4ccc(OCCCN5CCCCC5)nc4)cc3c21 [AZD1390]; conditions: max 0.3 µM
Summary of the method: as §1

Olaparib = compound: O=C(c1cc(Cc2n[nH]c(=O)c3ccccc23)ccc1F)N1CCN(C(=O)C2CC2)CC1 [Olaparib]; conditions: max 10 µM
Summary of the method: as §1

[1] = compound: O=C(Nc1ccc2[nH]nc(-c3ccncc3)c2c1)[C@@H]1CCN(CC(=O)N2CCN(c3ccc(-c4ncccn4)cc3)CC2)C1; conditions: max 5 µM
Summary of the method: as §1

Savolitinib = compound: C[C@@H](c1ccc2nccn2c1)n1nnc2ncc(-c3cnn(C)c3)nc21 [Savolitinib]; conditions: max 1 µM
Summary of the method: as §1

Selumetinib = compound: Cn1cnc2c(F)c(Nc3ccc(Br)cc3Cl)c(C(=O)NOCCO)cc21 [Selumetinib]; conditions: max 10 µM
Summary of the method: as §1

Etoposide = compound: COc1cc([C@@H]2c3cc4c(cc3[C@@H](O[C@@H]3O[C@@H]5CO[C@@H](C)O[C@H]5[C@H](O)[C@H]3O)[C@H]3COC(=O)[C@H]23)OCO4)cc(OC)c1O [Etoposide]; conditions: max 10 µM
Summary of the method: as §1

Crizotinib = compound: C[C@@H](Oc1cc(-c2cnn(C3CCNCC3)c2)cnc1N)c1c(Cl)ccc(F)c1Cl [Crizotinib]; conditions: max 10 µM
Summary of the method: as §1

AZD7648 = compound: Cc1cc2ncnn2cc1Nc1ncc2c(n1)n(C1CCOCC1)c(=O)n2C [AZD7648]; conditions: max 10 µM
Summary of the method: as §1

AZD2811 = compound: CCN(CCO)CCCOc1ccc2c(Nc3cc(CC(=O)Nc4cccc(F)c4)[nH]n3)ncnc2c1 [AZD2811]; conditions: max 1 µM
Summary of the method: as §1

Gemcitabine = compound: Nc1ccn([C@@H]2O[C@H](CO)[C@@H](O)C2(F)F)c(=O)n1 [Gemcitabine]; conditions: max 0.3 µM
Summary of the method: as §1

Venetoclax = compound: CC1(C)CCC(CN2CCN(c3ccc(C(=O)NS(=O)(=O)c4ccc(NCC5CCOCC5)c([N+](=O)[O-])c4)c(Oc4cnc5[nH]ccc5c4)c3)CC2)=C(c2ccc(Cl)cc2)C1 [Venetoclax]; conditions: max 1 µM
Summary of the method: as §1

Doxorubicin = compound: COc1cccc2c1C(=O)c1c(O)c3c(c(O)c1C2=O)C[C@@](O)(C(=O)CO)C[C@@H]3O[C@H]1C[C@H](N)[C@H](O)[C@H](C)O1 [Doxorubicin]; conditions: max 1 µM
Summary of the method: as §1

AZD8186 = compound: C[C@@H](Nc1cc(F)cc(F)c1)c1cc(C(=O)N(C)C)cc2c(=O)cc(N3CCOCC3)oc12 [AZD8186]; conditions: max 10 µM
Summary of the method: as §1

Prexasertib = compound: COc1cccc(OCCCN)c1-c1cc(Nc2cnc(C#N)cn2)n[nH]1 [Prexasertib]; conditions: max 1 µM
Summary of the method: as §1

SG3199 = compound: CC1=CN2[C@@H](C1)C=NC3=CC(=C(C=C3C2=O)OC)OCCCCCOC4=C(C=C5C(=C4)N=C[C@@H]6CC(=CN6C5=O)C)OC [SG3199]; conditions: max 0.001 µM
Summary of the method: as §1

Alisertib = compound: COc1cc(Nc2ncc3c(n2)-c2ccc(Cl)cc2C(c2c(F)cccc2OC)=NC3)ccc1C(=O)O [Alisertib]; conditions: max 10 µM
Summary of the method: as §1

AZD5991 = compound: Cc1c2c(nn1C)CSCc1cc(n(C)n1)CSc1cc(c3ccccc3c1)OCCCc1c(C(=O)O)n(C)c3c-2c(Cl)ccc13 [AZD5991]; conditions: max 1 µM
Summary of the method: as §1

AZD0156 = compound: CN(C)CCCOc1ccc(-c2ccc3ncc4c(c3c2)n(C2CCOCC2)c(=O)n4C)cn1 [AZD0156]; conditions: max 3 µM
Summary of the method: as §1

Paclitaxel = compound: CC(=O)O[C@H]1C(=O)[C@@]2(C)[C@H]([C@H](OC(=O)c3ccccc3)[C@]3(O)C[C@H](OC(=O)[C@H](O)[C@@H](NC(=O)c4ccccc4)c4ccccc4)C(C)=C1C3(C)C)[C@]1(OC(C)=O)CO[C@@H]1C[C@@H]2O [Paclitaxel]; conditions: max 3 µM
Summary of the method: as §1

5-Fluorouracil = compound: O=c1[nH]cc(F)c(=O)[nH]1 [5-Fluorouracil]; conditions: max 20 µM
Summary of the method: as §1

Taselisib = compound: Cc1nc(-c2cn3c(n2)-c2ccc(-c4cnn(C(C)(C)C(N)=O)c4)cc2OCC3)n(C(C)C)n1 [Taselisib]; conditions: max 10 µM
Summary of the method: as §1

AZD6738 = compound: C[C@@H]1COCCN1C2=NC(=NC(=C2)C3(CC3)[S@](=N)(=O)C)C4=C5C=CNC5=NC=C4 [AZD6738]; conditions: max 10 µM
Summary of the method: as §1

Cell Line | IC50, cell viability 72 h (AZD1775) [nM] | IC50, cell viability 72 h (SRA737) [nM] | IC50, cell viability 72 h (Lapatinib) [µM] | IC50, cell viability 72 h (AZD4320) [nM] | IC50, cell viability 72 h (SN-38) [nM] | IC50, cell viability 72 h (Carboplatin) [µM] | IC50, cell viability 72 h (Gefitinib) [µM] | IC50, cell viability 72 h (Palbociclib) [nM] | IC50, cell viability 72 h (Dasatinib) [nM] | IC50, cell viability 72 h (Trametinib) [nM] | IC50, cell viability 72 h (AZD5363) [nM] | IC50, cell viability 72 h (AZD5153) [nM] | IC50, cell viability 72 h (MK-2206) [µM] | IC50, cell viability 72 h (AZD1390) [nM] | IC50, cell viability 72 h (Olaparib) [µM] | IC50, cell viability 72 h [1] [µM] | IC50, cell viability 72 h (Savolitinib) [nM] | IC50, cell viability 72 h (Selumetinib) [µM] | IC50, cell viability 72 h (Etoposide) [nM] | IC50, cell viability 72 h (Crizotinib) [µM] | IC50, cell viability 72 h (AZD7648) [µM] | IC50, cell viability 72 h (AZD2811) [nM] | IC50, cell viability 72 h (Gemcitabine) [nM] | IC50, cell viability 72 h (Venetoclax) [nM] | IC50, cell viability 72 h (Doxorubicin) [nM] | IC50, cell viability 72 h (AZD8186) [µM] | IC50, cell viability 72 h (Prexasertib) [nM] | IC50, cell viability 72 h (SG3199) [nM] | IC50, cell viability 72 h (Alisertib) [nM] | IC50, cell viability 72 h (AZD5991) [nM] | IC50, cell viability 72 h (AZD0156) [nM] | IC50, cell viability 72 h (Paclitaxel) [nM] | IC50, cell viability 72 h (5-Fluorouracil) [µM] | IC50, cell viability 72 h (Taselisib) [µM] | IC50, cell viability 72 h (AZD6738) [nM]
WIL2-NS (Non-Cancerous) | 231 | 1730 | > 10 | > 1000 | 4.65 | > 10 | > 10 | 629 | 1350 | > 1000 | 2380 | 44.8 | 6.09 | > 300 | > 10 | > 5 | > 1000 | > 10 | 375 | > 10 | > 10 | > 1000 | 7.8 | > 1000 | 105 | > 10 | 6.04 | > 1 | 927 | > 1000 | > 3000 | 10.7 | > 20 | 6.95 | 1260
WM-115 (Melanoma) | > 3000 | > 10000 | > 10 | > 1000 | > 300 | > 10 | > 10 | > 10000 | > 2000 | 182 | > 10000 | > 1000 | > 10 | > 300 | > 10 | > 5 | > 1000 | > 10 | > 10000 | > 10 | > 10 | > 1000 | > 300 | > 1000 | 633 | 3.41 | 486 | > 1 | > 10000 | > 1000 | > 3000 | 387 | > 20 | 7.27 | > 10000
